The text below walks through data of article PMC8839189, “Bis-Amiridines as Acetylcholinesterase and Butyrylcholinesterase Inhibitors: N-Functionalization Determines the Multitarget Anti-Alzheimer’s Activity Profile” (Molecules, 2022).

Assay [1] has as its target T1, EeAChE PAS (Electrophorus electricus, UniProt O42275).
T1 construct: purchased Sigma-Aldrich type VI-S
The assay can be described thus: Propidium iodide displacement from the PAS of EeAChE. The format is binding, Electric eel. The conditions noted are these: compound concentration 20 µM. Here is the method: The enzyme was Electric eel AChE (EeAChE type VI-S, lyophilized powder, Sigma-Aldrich). We selected this source of AChE for consistency with our other reports and because of the purity, specific activity, and lower cost compared to human AChE.
The assay is based on the high level of fluorescence intensity of propidium iodide bound with AChE decreasing in the presence of test compounds that competitively displace propidium iodide from the AChE PAS [25, 27]. Specificially, EeAChE ([…] final concentration) is incubated with the test compound (20 μM in 1 mM Tris-HCl buffer pH 8.0, 25 °C, for 15 min). Propidium iodide (final concentration 8 μM) is then added for a further 15-min incubation and the fluorescence spectrum is taken (530 nm (excitation) and 600 nm (emission)). The same concentration of propidium iodide in the Tris-HCI buffer was used as the blank. Triplicate determinations were recorded from a FLUOStar Optima microplate reader and results calculated via the following equation:% Displacement = 100 − (IFAChE+ Propidium + inhibitor/IFAChE + Propidium) × 100(1) where IFAChE + Propidium = fluorescence intensity of propidium iodide associated with AChE in the absence of the test compound (taken as 100%), and IFAChE + Propidium + inhibitor = fluorescence intensity of propidium iodide associated with AChE in the presence of the test compound.

The target of assay [2] is T2, AChE (Homo sapiens, UniProt P22303).
T2 construct: we used human erythrocyte AChE, equine serum BChE, and porcine liver CES; purchased Sigma-Aldrich; host or cells: human erythrocytes
The assay can be described thus: Kinetic study of AChE inhibition (Lineweaver-Burk). The format is biochemical. The conditions noted are these: for type of AChE inhibition: Lineweaver–Burk plots; for Ki: read-out: Ki, the competitive component, AChE. As for the experimental part:
(§1) We assessed the mechanisms of AChE and BChE inhibition by performing a thorough analysis of enzyme kinetics. After a 5 min incubation at 25 °C (for temperature equilibration) with three increasing concentrations of inhibitor and six decreasing substrate concentrations, the residual enzyme activity was measured as described above for enzymatic assays.

Assay [3] has as its target T3, human erythrocyte AChE (Homo sapiens, UniProt P22303). Nature of the assay: biochemical.
Assay [4] has as its target T4, BChE (Equus caballus, UniProt P81908).
T4 construct: we used human erythrocyte AChE, equine serum BChE, and porcine liver CES; purchased Sigma-Aldrich; host or cells: equine serum
Nature of the assay: Kinetic study of BChE inhibition (Lineweaver-Burk). The format is biochemical. The conditions noted are these: for type of BChE inhibition: Lineweaver–Burk plots; for Ki: competitive component; for αKi, BChE: non-competitive component. As for the experimental part:
as §1

The target of assay [5] is T5, equine serum BChE (Equus caballus, UniProt P81908).
T5 construct: we used human erythrocyte AChE, equine serum BChE, and porcine liver CES; purchased Sigma-Aldrich; host or cells: equine serum
The assay can be described thus: biochemical. The conditions noted are these: mean ± SEM, n = 3; read-out: Equine Serum BChE, IC50.

The nature of assay [6]: ABTS radical cation scavenging activity assay. The conditions noted are these: 1 h incubation; for IC50: ABTS•+ 100 μM; for ABTS•+-Scavenging Activity, TEAC: Trolox equivalent antioxidant capacity. As for the experimental part:
Radical scavenging activity of the compounds was assessed using the ABTS radical cation (ABTS^•+) decolorization assay with modifications, described in detail in [30, 32]. ABTS (2,2′-azino-bis-(3-ethylbenzothiazoline-6-sulfonic acid)) was purchased from Tokyo Chemical Industry Co., Ltd. (Tokyo, Japan), potassium persulfate (dipotassium peroxodisulfate), Trolox (6-hydroxy-2,5,7,8-tetramethylchroman-2-carboxylic acid), HPLC-grade ethanol, and DMSO were obtained from Sigma-Aldrich. All tested compounds were dissolved in DMSO.
The reaction was monitored for 1 h with an interval of 1–10 min. Data are given for 1 h of incubation of compounds with ABTS^•+ (100 μM final concentration). The reduction in absorbance was measured spectrophotometrically at 734 nm using xMark UV/VIS microplate spectrophotometer (Bio-Rad, Hercules, CA, USA). Ethanol blanks were run in each assay. Values were obtained from three replicates of each sample and three independent experiments. Standard antioxidant Trolox was used as a reference compound. Trolox equivalent antioxidant capacity (TEAC) values were determined as the ratio between the slopes obtained from the linear correlation of the ABTS radical absorbance with the concentrations of tested compounds and Trolox.

For assay [7], the system named is porcine liver CES. Nature of the assay: CES inhibition, 4-NPA substrate. The format is biochemical. The conditions noted are these: compound concentration 20 µM.
A short description of assay [8]: Ferric reducing antioxidant power (FRAP) assay. More on the design: key: ratio of Trolox to test compound concentration giving same FRAP effect. The conditions noted are these: Trolox equivalents; compound concentration 20 µM. Here is the method:
The ferric reducing antioxidant power (FRAP) assay proposed by Benzie and Strain [106, 107] was modified to be performed in 96-well microplates, as described in detail in [32]. The FRAP reagent contained 2.5 mL of 10 mM TPTZ (2,4,6-tris(2-pyridyl)-s-triazine, Sigma-Aldrich) solution in 40 mM HCl, 2.5 mL of 20 mM FeCl3 (Sigma-Aldrich) in distilled water and 25 mL of 0.3 M acetate buffer (pH 3.6). Aliquots of 10 µL of the tested compound (compounds 3, 5 or reference substance) dissolved in DMSO (0.5 mM) were placed in quadruplicate. Absorbance was measured at the wavelength of 593 nm after 60-min incubation at 37 °C. In each case, Trolox was used as a reference compound to obtain the standard curve and value was calculated with respect to the activity of Trolox and expressed as Trolox equivalents (TE)—the values calculated as the ratio of the concentrations of Trolox and the test compound, resulting in the same effect on ferric reducing activity.

Assay [9] concerns the target T3, human erythrocyte AChE. The conditions noted are these: 5d (m = 5) relative to 5a (m = 2).
In assay [10] the target is β-amyloid (1–42) (Aβ42) (Homo sapiens, UniProt P05067). The assay can be described thus: Inhibition of Aβ42 self-aggregation, Thioflavin T fluorescence. The conditions noted are these: Aβ42 50 µM, compound 100 µM. Type of assay: biochemical. As for the experimental part: The inhibitory effect of the test compounds toward Aβ42 self-aggregation was determined using the Thioflavin T (ThT) fluorescence method with minor modifications. […] Therefore, the decrease in ThT fluorescence correlates with the activity of studied compounds to inhibit the formation of amyloid aggregates.
A total of 1 mg of lyophilized HFIP-pretreated Aβ42 from rPeptide (Watkinsville, GA, USA) was dissolved in DMSO to obtain a stable initial solution ([Aβ42] = 500 μM), then it was aliquoted and stored at −20 °C.
Then, the samples were incubated for 24 h at 37 °C without stirring in the absence (base level of Aβ42 self-aggregation, control) or presence of the test compounds. Myricetin and propidium iodide were used as references (positive controls). All compounds were used at a concentration of 100 µM. […] Analyses were performed with a FLUOStar Optima microplate reader (LabTech, Ortenberg, Germany). […] Each assay was run in triplicate.

Several values for one entry are separate records, joined by “and”; a condition that tells them apart may be missing. Equal entries are not always repeated.

T5 sequence (P81908 whole entry): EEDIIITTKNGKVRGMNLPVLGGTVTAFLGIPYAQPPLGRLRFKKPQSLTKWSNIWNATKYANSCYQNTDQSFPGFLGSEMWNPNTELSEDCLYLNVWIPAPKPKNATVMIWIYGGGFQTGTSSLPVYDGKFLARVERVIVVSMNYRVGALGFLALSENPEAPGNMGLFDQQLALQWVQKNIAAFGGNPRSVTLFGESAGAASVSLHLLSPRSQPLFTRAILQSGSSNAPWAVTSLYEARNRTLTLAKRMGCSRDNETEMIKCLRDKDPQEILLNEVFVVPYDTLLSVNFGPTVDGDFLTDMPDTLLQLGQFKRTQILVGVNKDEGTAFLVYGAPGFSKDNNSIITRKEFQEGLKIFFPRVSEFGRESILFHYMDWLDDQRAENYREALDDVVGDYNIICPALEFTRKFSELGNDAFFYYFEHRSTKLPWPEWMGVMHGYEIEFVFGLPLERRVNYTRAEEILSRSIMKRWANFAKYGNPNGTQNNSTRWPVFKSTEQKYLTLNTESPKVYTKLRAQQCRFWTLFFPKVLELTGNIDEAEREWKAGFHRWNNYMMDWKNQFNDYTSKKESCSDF
T4 sequence (P81908 whole entry): as above
T3 sequence (P22303 other isoform, or with tags, fused parts or gaps): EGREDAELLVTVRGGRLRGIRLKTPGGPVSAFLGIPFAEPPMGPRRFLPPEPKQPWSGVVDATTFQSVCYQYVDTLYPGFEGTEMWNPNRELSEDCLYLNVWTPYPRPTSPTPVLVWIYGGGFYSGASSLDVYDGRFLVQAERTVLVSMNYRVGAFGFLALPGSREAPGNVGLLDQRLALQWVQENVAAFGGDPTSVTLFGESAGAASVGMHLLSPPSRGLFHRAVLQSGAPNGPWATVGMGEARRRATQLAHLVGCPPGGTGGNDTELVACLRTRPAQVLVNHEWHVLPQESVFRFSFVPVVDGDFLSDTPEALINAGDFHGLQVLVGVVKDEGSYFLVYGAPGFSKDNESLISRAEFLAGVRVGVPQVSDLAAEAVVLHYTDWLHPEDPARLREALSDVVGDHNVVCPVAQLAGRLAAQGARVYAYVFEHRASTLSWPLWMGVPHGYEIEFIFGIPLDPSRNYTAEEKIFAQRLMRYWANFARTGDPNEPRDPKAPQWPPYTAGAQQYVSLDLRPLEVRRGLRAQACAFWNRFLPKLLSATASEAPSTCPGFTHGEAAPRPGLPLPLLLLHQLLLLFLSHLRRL
T2 sequence (P22303 other isoform, or with tags, fused parts or gaps): as above
T1 sequence (O42275 24-633): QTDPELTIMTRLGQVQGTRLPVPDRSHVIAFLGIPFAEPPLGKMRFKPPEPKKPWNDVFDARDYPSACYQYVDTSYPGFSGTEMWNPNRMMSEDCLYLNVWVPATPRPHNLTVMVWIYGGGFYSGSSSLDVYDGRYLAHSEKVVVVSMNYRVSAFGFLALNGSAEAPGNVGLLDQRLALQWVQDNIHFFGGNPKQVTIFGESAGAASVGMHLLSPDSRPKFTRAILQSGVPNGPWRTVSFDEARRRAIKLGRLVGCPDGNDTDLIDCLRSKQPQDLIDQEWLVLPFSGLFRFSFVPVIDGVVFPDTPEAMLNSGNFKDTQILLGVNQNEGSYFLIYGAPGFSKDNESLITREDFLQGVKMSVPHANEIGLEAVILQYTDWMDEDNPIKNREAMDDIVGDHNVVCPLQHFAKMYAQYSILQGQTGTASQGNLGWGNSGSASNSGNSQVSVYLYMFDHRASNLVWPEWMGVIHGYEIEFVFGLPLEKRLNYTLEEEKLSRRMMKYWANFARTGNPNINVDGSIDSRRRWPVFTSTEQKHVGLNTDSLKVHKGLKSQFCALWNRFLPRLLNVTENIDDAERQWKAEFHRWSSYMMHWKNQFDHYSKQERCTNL
Chain of β-amyloid (1–42) (Aβ42) (P05067 672-713): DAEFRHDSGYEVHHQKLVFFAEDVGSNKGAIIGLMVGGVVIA

By Ki is commonly meant a dissociation constant, usually derived from enzyme kinetics or from competition with a known ligand. In general, IC50 refers to the concentration that inhibits the measured activity by half. On to `O=C(CNCCNCC(=O)Nc1c2c(nc3c1CCC3)CCCC2)Nc1c2c(nc3c1CCC3)CCCC2` [Compound 3a], for which the “Displacement of Propidium from EeAChE PAS” value in assay [1] is on record as 14.4 ± 1.2%. In addition, in assay [2], the “αKi, the non-competitive component, AChE” value is 2.62 ± 0.13 µM; the “type of AChE inhibition” value is on record as “mixed-type inhibition”; the Ki stood at 772 ± 47 nM. The compound further displayed a 50% inhibitory concentration (IC50) in [3] of 1640 ± 80 nM. Further, in [4], the “type of BChE inhibition” value is “mixed-type inhibition”; the affinity corresponds to a Ki of 57.8 ± 2.5 nM; the “αKi, BChE” value was 0.189 ± 0.007 µM. In addition, in assay [5], the IC50 worked out at 110 ± 4 nM. Moreover, in assay [6], the IC50 is around 180000 nM and the “ABTS•+-Scavenging Activity, TEAC” value is 0.10 ± 0.004. Also, the “Porcine Liver CES, (%) inhibition” value in assay [7] came to 4.8 ± 0.4%.

By inhibition is commonly meant the share of the control response that was lost under treatment. Consider `S=C(NCCCCCNC(=S)Nc1c2c(nc3c1CCC3)CCCC2)Nc1c2c(nc3c1CCC3)CCCC2` [Compound 5d], for which the “Displacement of Propidium from EeAChE PAS” value in [1] was found to be 11.2 ± 1.0%. In [8], the “FRAP, TE” value turned out to be 0.45 ± 0.03. Besides, in [2], the “αKi, the non-competitive component, AChE” value came out at 7.75 ± 0.11 µM; the “type of AChE inhibition” value was “mixed-type inhibition”; the inhibition constant Ki amounted to 1180 ± 80 nM. The IC50 in assay [3] was 4010 ± 130 nM. Further, in [4], the “type of BChE inhibition” value is reported as “mixed-type inhibition”; the inhibition constant (Ki) amounted to 340 ± 12 nM; the “αKi, BChE” value is 1.85 ± 0.06 µM. In addition, the 50% inhibitory concentration (IC50) in [5] is 760 nM and 758 nM. Also, in assay [9], the “enhancement of anti-AChE activity, fold” value amounted to 24 fold. Moreover, in [6], the IC50 worked out at 10900 ± 700 nM and the “ABTS•+-Scavenging Activity, TEAC” value was 1.6 ± 0.06. In addition, the “Porcine Liver CES, (%) inhibition” value in assay [7] amounted to 12.8 ± 1.1%. The same compound registered an inhibition at 100 µM in [10] of 12.8 ± 1.1%.
